Our source for the relative viability values is the supplement of paper PMC10307832.

Experiment in all cases: relative viability (nuclei count vs DMSO), 5 days (fraction); higher = more cells survive
Compound in the test “AZ3146 + Pemetrexed”: CN1CCC(CC1)OC2=CC(=C(C=C2)NC3=NC=C4C(=N3)N(C(=O)N4C)C5CCCC5)OC [AZ3146] + Nc1nc2[nH]cc(CCc3ccc(C(=O)N[C@@H](CCC(=O)O)C(=O)O)cc3)c2c(=O)[nH]1 [Pemetrexed] (partner 0.2 µM)
The method in brief: (§1)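 Lung cancer cell lines in 1536-well plates got either a single drug or a fixed anchor-drug dose together with five library-drug doses (not always all listed) in √10 steps, by pin tool, on the day after seeding. Nuclei were counted after 5 days, and relative viability is the treated-to-vehicle ratio of nuclei counts. Values are medians of duplicate plates.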

Compound in the test “AZ3146 + Bortezomib”: CN1CCC(CC1)OC2=CC(=C(C=C2)NC3=NC=C4C(=N3)N(C(=O)N4C)C5CCCC5)OC [AZ3146] + CC(C)C[C@H](NC(=O)[C@H](Cc1ccccc1)NC(=O)c1cnccn1)B(O)O [Bortezomib] (partner 0.002 µM)
The method in brief: as §1

Compound in the test “GSK-J4 + Trametinib”: CCOC(=O)CCNc1cc(N2CCc3ccccc3CC2)nc(-c2ccccn2)n1 [GSK-J4] + CC(=O)Nc1cccc(-n2c(=O)n(C3CC3)c(=O)c3c(Nc4ccc(I)cc4F)n(C)c(=O)c(C)c32)c1 [Trametinib] (partner 0.02 µM)
The method in brief: as §1

Compound in the test “AZ3146 + Luminespib”: CN1CCC(CC1)OC2=CC(=C(C=C2)NC3=NC=C4C(=N3)N(C(=O)N4C)C5CCCC5)OC [AZ3146] + CCNC(=O)c1noc(-c2cc(C(C)C)c(O)cc2O)c1-c1ccc(CN2CCOCC2)cc1 [Luminespib] (partner 0.01 µM)
The method in brief: as §1

In the case of UMC-11, the relative viability with AZ3146 + Pemetrexed (first compound 0.08 µM) was found to be 0.643; in the test with AZ3146 + Pemetrexed (first compound 0.253 µM), 0.819; with AZ3146 + Pemetrexed (first compound 0.8 µM), 0.782; with AZ3146 + Pemetrexed (first compound 2.53 µM), 0.775; with AZ3146 + Pemetrexed (first compound 8 µM), 0.43; with AZ3146 + Bortezomib (first compound 0.08 µM), 0.814. In addition, the relative viability with AZ3146 + Bortezomib (first compound 0.253 µM) came out at 0.661; in the test with AZ3146 + Bortezomib (first compound 0.8 µM) it was 0.598; in the test with AZ3146 + Bortezomib (first compound 2.53 µM), 0.675; in the test with AZ3146 + Bortezomib (first compound 8 µM), 0.635; in the test with GSK-J4 + Trametinib (first compound 0.5 µM), 0.666; with GSK-J4 + Trametinib (first compound 1.581 µM), 0.336. Also, the relative viability in the test with GSK-J4 + Trametinib (first compound 5 µM) came to 0.255; with GSK-J4 + Trametinib (first compound 15.81 µM), 0.834; in the test with GSK-J4 + Trametinib (first compound 50 µM), 0.521; in the test with AZ3146 + Luminespib (first compound 0.08 µM), 0.959; with AZ3146 + Luminespib (first compound 0.253 µM), 1.2; in the test with AZ3146 + Luminespib (first compound 0.8 µM), 1.09. The relative viability with AZ3146 + Luminespib (first compound 2.53 µM) was 0.86; with AZ3146 + Luminespib (first compound 8 µM), 0.256.
